The values that follow are results of earlier work, collected in patent US20110046396A1, “POLYMORPHIC FORMS OF FLUVASTATIN SODIUM AND PROCESS FOR PREPARING THE SAME” (JUBILANT ORGANOSYS LIMITED, priority 2005, published 2011).

The conditions of this data set: compared with Form A or the amorphous form of Fluvastatin sodium; described in U.S. Pat. No. 6,124,340.

As to `CC(C)n1c(/C=C/[C@H](O)C[C@H](O)CC(=O)[O-])c(-c2ccc(F)cc2)c2ccccc21.[Na+]` (racemic) [Form B, (±)-7-(3-(4-fluorophenyl)-1-(1-methylethyl)-1H-indol-2-yl)-3,5-dihydroxy-6-heptenoic acid monosodium salt], the hygroscopicity result is “less hygroscopic than Form A or the amorphous form”.
